Where “and” joins values, the source holds several entries; their conditions need not be identical. Equal values may be shown once. Toxic doses and inconclusive results are not listed. Where a SMILES comes first, the peptide text is derived from it. [ ]: non-standard residue; d: D form. The star is where a group is joined. Cbz = O=C(OCc1ccccc1)*; Nva = CCC[CH](N)C(=O)O
Tested on: B6C3F1 mice, B16 melanoma ip, median survival T/C
Assay: NCI In Vivo Anticancer Drug Screen. Data for tumor model B16 Melanoma (intraperitoneal) in B6C3F1 mice
Settings: endpoint: median survival time, higher = longer survival
Outline: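 Mice bearing transplanted tumor were dosed with compound or vehicle, and survival was recorded. Activity is expressed as the treated-group measurement (T) divided by the vehicle control measurement (C).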

[1] = dose: 100.0 mg/kg/injection, schedule: Q01DX009 (ip), vehicle: Klucel (hydroxypropylcellulose) (HPC)
[2] = dose: 200.0 mg/kg/injection, schedule: Q01DX009 (ip), vehicle: Klucel (hydroxypropylcellulose) (HPC)
[3] = dose: 400.0 mg/kg/injection, schedule: Q01DX009 (ip), vehicle: Klucel (hydroxypropylcellulose) (HPC)
[4] = dose: 12.5 mg/kg/injection, schedule: Q01DX009 (ip), vehicle: saline with Tween-80
[5] = dose: 25.0 mg/kg/injection, schedule: Q01DX009 (ip), vehicle: saline with Tween-80
[6] = dose: 50.0 mg/kg/injection, schedule: Q01DX009 (ip), vehicle: saline with Tween-80
[7] = dose: 100.0 mg/kg/injection, schedule: Q01DX009 (ip), vehicle: saline with Tween-80
[8] = dose: 200.0 mg/kg/injection, schedule: Q01DX009 (ip), vehicle: saline with Tween-80

`CC(C)CC(NC(=O)CNC(=O)CNC(=O)OCc1ccccc1)C(=O)O` (configuration not stated) was tested, and the T/C (dose: 0.75 mg/kg/injection, schedule: Q01DX009 (ip), vehicle: Klucel (hydroxypropylcellulose) (HPC)) was 103 % of control, the T/C (dose: 1.5 mg/kg/injection, schedule: Q01DX009 (ip), vehicle: Klucel (hydroxypropylcellulose) (HPC)) was 107 % of control and the T/C (dose: 3.0 mg/kg/injection, schedule: Q01DX009 (ip), vehicle: Klucel (hydroxypropylcellulose) (HPC)) was 95 % of control. For the same compound, the T/C (dose: 3.12 mg/kg/injection, schedule: Q01DX009 (ip), vehicle: Klucel (hydroxypropylcellulose) (HPC)) was 101 % of control, the T/C (dose: 6.0 mg/kg/injection, schedule: Q01DX009 (ip), vehicle: Klucel (hydroxypropylcellulose) (HPC)) was 106 % of control and the T/C (dose: 6.25 mg/kg/injection, schedule: Q01DX009 (ip), vehicle: Klucel (hydroxypropylcellulose) (HPC)) was 92 % of control. For the same compound, the T/C (dose: 12.0 mg/kg/injection, schedule: Q01DX009 (ip), vehicle: Klucel (hydroxypropylcellulose) (HPC)) was 101 % of control, the T/C (dose: 12.5 mg/kg/injection, schedule: Q01DX009 (ip), vehicle: Klucel (hydroxypropylcellulose) (HPC)) was 92 % of control and the T/C (dose: 25.0 mg/kg/injection, schedule: Q01DX009 (ip), vehicle: Klucel (hydroxypropylcellulose) (HPC)) was 115 % of control and 104 % of control. The T/C (dose: 50.0 mg/kg/injection, schedule: Q01DX009 (ip), vehicle: Klucel (hydroxypropylcellulose) (HPC)) was 100 % of control, the T/C [1] was 122 % of control and the T/C [2] was 89 % of control. For the same compound, the T/C [3] was 110 % of control.
For `COc1ccc([C@@]23Oc4cc(OC)cc(OC)c4[C@]2(O)[C@H](O)[C@H](C(=O)N(C)C)[C@H]3c2ccccc2)cc1`, the T/C (dose: 0.25 mg/kg/injection, schedule: Q01DX009 (ip), vehicle: Klucel (hydroxypropylcellulose) (HPC)) was 97 % of control, the T/C (dose: 0.5 mg/kg/injection, schedule: Q01DX009 (ip), vehicle: Klucel (hydroxypropylcellulose) (HPC)) was 119 % of control and 91 % of control and 106 % of control and the T/C (dose: 1.0 mg/kg/injection, schedule: Q01DX009 (ip), vehicle: Klucel (hydroxypropylcellulose) (HPC)) was 112 % of control and 117 % of control. For the same compound, the T/C (dose: 2.0 mg/kg/injection, schedule: Q01DX009 (ip), vehicle: Klucel (hydroxypropylcellulose) (HPC)) was 103 % of control and 104 % of control and 106 % of control.
For `CCCC(NC(=O)OCc1ccccc1)C(=O)NC(CCSC)C(=O)O` (configuration not stated) (Cbz-[Nva]-Met-OH; configuration not given here), the T/C [1] was 100 % of control, the T/C [2] was 104 % of control and the T/C [3] was 96 % of control.
With `C/C=C/C=C1/OC(C)=C(C(C)=O)C1=O` the T/C [4] was 99 % of control, the T/C [5] was 99 % of control and the T/C [6] was 106 % of control. The T/C [7] was 98 % of control and the T/C [8] was 109 % of control.
`CN1C(=O)C(=Cc2ccc(O)cc2)C(=O)N(C)C1=O` was tested, and the T/C [4] was 97 % of control, the T/C [5] was 99 % of control and the T/C [6] was 101 % of control. For the same compound, the T/C [7] was 104 % of control and the T/C [8] was 94 % of control.
`CCCCCCCCCCCCCCCCCC1=NC(C)CC(C)(C)O1` (configuration not stated) was tested, and the T/C (dose: 50.0 mg/kg/injection, schedule: Q01DX009 (ip), vehicle: saline) was 96 % of control, the T/C (dose: 100.0 mg/kg/injection, schedule: Q01DX009 (ip), vehicle: saline) was 94 % of control and the T/C (dose: 200.0 mg/kg/injection, schedule: Q01DX009 (ip), vehicle: saline) was 94 % of control.
With `CC[C@@]1(O)C[C@H](OC2CC(N(C)C)C(OC3CC(O)C(O[C@@H]4O[C@@H](C)C(=O)C=C4N)C(C)O3)C(C)O2)c2c(cc3c(c2O)C(=O)c2c(O)ccc(O)c2C3=O)[C@H]1C(=O)OC` (some centres not stated) the T/C (dose: 0.02 mg/kg/injection, schedule: Q01DX001 (ip), vehicle: suspension in saline) was 102 % of control, the T/C (dose: 0.05 mg/kg/injection, schedule: Q01DX001 (ip), vehicle: suspension in saline) was 111 % of control and the T/C (dose: 0.1 mg/kg/injection, schedule: Q01DX001 (ip), vehicle: suspension in saline) was 111 % of control. For the same compound, the T/C (dose: 0.19 mg/kg/injection, schedule: Q01DX009 (ip), vehicle: saline) was 121 % of control, the T/C (dose: 0.2 mg/kg/injection, schedule: Q01DX001 (ip), vehicle: suspension in saline) was 116 % of control and the T/C (dose: 0.4 mg/kg/injection, schedule: Q01DX001 (ip), vehicle: suspension in saline) was 121 % of control. The T/C (dose: 0.75 mg/kg/injection, schedule: Q01DX009 (ip), vehicle: saline) was 153 % of control, the T/C (dose: 0.8 mg/kg/injection, schedule: Q01DX001 (ip), vehicle: suspension in saline) was 121 % of control and the T/C (dose: 1.5 mg/kg/injection, schedule: Q01DX009 (ip), vehicle: saline) was 173 % of control. The T/C (dose: 3.0 mg/kg/injection, schedule: Q01DX009 (ip), vehicle: saline) was 179 % of control and the T/C (dose: 3.2 mg/kg/injection, schedule: Q01DX001 (ip), vehicle: suspension in saline) was 152 % of control.
For `CC(C)(C)OC(=O)NC(Cc1ccc(O)cc1)C(=O)O` (configuration not stated), the T/C [1] was 108 % of control, the T/C [2] was 103 % of control and the T/C [3] was 97 % of control.
